Reference: patent US7084127B2, “C2,5′-disubstituted and N6, C2,5′-trisubstituted adenosine derivatives and their different uses” (Universiteit Leiden, priority 2001, dated 2006)

Experiments:
[1] = biological target: T1, human adenosine A1 receptors expressed in CHO cells (Homo sapiens, UniProt P30542); assay: cAMP assay A1 (inhibition of forskolin-induced cAMP production); type: cell-based; settings: compared to reference full agonist CPA (10 μM) in A1 CHO cells; tested at ±100 × Ki; ±SEM, n = 3; forskolin 10 μM
T1 construct: expressed in transfected cells; host or cells: CHO cells
T1 sequence (P30542 1-326): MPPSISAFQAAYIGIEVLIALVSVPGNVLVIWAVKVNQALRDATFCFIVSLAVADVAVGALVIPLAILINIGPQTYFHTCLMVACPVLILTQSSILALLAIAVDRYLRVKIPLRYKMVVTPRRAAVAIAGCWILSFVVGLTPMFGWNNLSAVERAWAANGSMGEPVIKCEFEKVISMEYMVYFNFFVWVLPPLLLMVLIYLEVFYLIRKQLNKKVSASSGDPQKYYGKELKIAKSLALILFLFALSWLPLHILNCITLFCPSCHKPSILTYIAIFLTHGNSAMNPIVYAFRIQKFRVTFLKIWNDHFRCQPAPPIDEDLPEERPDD
Description: cAMP assay A1 and A3 CHO cells expressing either the human adenosine A1 or A3 receptor were grown overnight as a monolayer in 24 wells tissue culture plates (400 μl/well; 2×10^5cells/well). cAMP generation was performed in Dulbecco's Modified Eagles Medium (DMEM)/N-2-hydroxyethylpiperazin-N′-2-ethansulfonic acid (HEPES) buffer (0.60 g HEPES/50 ml DMEM pH 7.4). […] After incubation for 40 minutes at 37° C., 100 μl forskolin (final concentration 10 μM) was added. After 15 minutes at 37° C., the reaction was terminated by removing the medium and adding 200 μL 0.1 M HCl. Wells were stored at −20° C. until assay
The amounts of cAMP were determined after a protocol with cAMP binding protein^28 with the following minor modifications. As a buffer was used 150 mM K2HPO4/10 mM EDTA/0.2% Bovine Serum Albumine (BSA) at pH 7.5. Samples (20 μl+30 μl 0.1 M HCl) were incubated for at least 2.5 hours at 0° C. before filtration over Whatman GF/B filters. Filters were additionally rinsed with 2×2 ml TrisHCl buffer (pH 7.4, 4° C.). Filters were counted in Packard Emulsifier Safe scintillation fluid (3.5 ml) after 24 hours of extraction. […]

[2] = biological target: T2, A2A receptor in rat striatum (Rattus norvegicus, UniProt P30543); assay: Radioligand binding, displacement of [3H]ZM241385 from rat striatal membranes; settings: [3H]ZM241385, rat striatal membranes;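 also: displacement assays run in the absence of GTP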
T2 construct: the A2A receptor in rat striatum; from tissue; host or cells: rat striatum
T2 sequence (P30543 whole entry): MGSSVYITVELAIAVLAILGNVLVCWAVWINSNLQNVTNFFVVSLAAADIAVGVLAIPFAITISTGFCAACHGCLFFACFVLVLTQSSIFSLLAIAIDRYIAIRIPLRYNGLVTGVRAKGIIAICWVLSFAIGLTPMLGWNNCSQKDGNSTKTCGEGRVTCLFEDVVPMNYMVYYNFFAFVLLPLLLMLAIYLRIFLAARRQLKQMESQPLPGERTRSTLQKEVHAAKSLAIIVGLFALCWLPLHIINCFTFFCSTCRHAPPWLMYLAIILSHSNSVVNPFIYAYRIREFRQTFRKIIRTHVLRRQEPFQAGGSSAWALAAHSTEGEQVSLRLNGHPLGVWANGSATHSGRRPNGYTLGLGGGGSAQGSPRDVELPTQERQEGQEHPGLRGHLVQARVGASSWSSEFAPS
Description: Incubations were carried out for 1 hr at 37° C. and were terminated by rapid filtration over Whatman GF/B filters, using a Brandell cell harvester (Brandell, Gaithersburg, Md.). Tubes were washed three times with 3 ml of buffer. Radioactivity was determined in a Beckman 5500B γ-counter. Nonspecific binding was determined in the presence of 10^−5 M R-PIA.
All compounds were tested in radioligand binding assays to determine their affinities for the adenosine A1 receptor in rat brain cortex, the A2A receptor in rat striatum and the human A3 receptor as expressed in HEK 293 cells (Table 2). […] AB-MECA, an A3 receptor agonist, was also used. Displacement experiments were performed in the absence of GTP.

Row | SMILES | % inhib. A1 of forskolin-induced cAMP [1] [%] | melting point [°C] | Ki [2] [nM]
1 | CCOC[C@H]1O[C@@H](n2cnc3c(N)nc(Cl)nc32)[C@H](O)[C@@H]1O [Compound 75, 2-Chloro-5′-O-ethyladenosine] | 67 ± 7 | 117 to 119 | 659 ± 168
2 | Nc1nc(Cl)nc2c1ncn2[C@@H]1O[C@H](COC2CC2)[C@@H](O)[C@H]1O [Compound 81, 2-Chloro-5′-O-cyclopropyladenosine] | 49 ± 9 | 122 to 124 | 885 ± 89

Continued by falling Ki [2], values first:

Row | % inhib. A1 of forskolin-induced cAMP [1] [%] | melting point [°C] | Ki [2] [nM] | SMILES
3 | 57 ± 11 | 110 to 112 | 415 ± 69 | CCOC[C@H]1O[C@@H](n2cnc3c(N)ncnc32)[C@H](O)[C@@H]1O [Compound 72, 5′-O-Ethyladenosine]
4 | 78 ± 4 | 200 to 202 | 284 ± 55 | COC[C@H]1O[C@@H](n2cnc3c(N)nc(Cl)nc32)[C@H](O)[C@@H]1O [Compound 69, 2-Chloro-5′-O-methyladenosine]
5 | 75 ± 3 | 112 to 114 | 261 ± 65 | COC[C@H]1O[C@@H](n2cnc3c(N)ncnc32)[C@H](O)[C@@H]1O [Compound 66, 5′-O-methyladenosine]
